Test results published in patent US12624007B2, “Naphthalimide sulfonate derivative, and photoacid generator and photoresist composition which comprise same” (SAMYANG CORPORATION, priority 2020, dated 2026).

Key:
[1] = Measurement of solubility of photoacid generators in photoresist solvents; conditions: for Solubility PGMEA: solvent PGMEA; for Solubility Cyclohexane: solvent cyclohexane
[2] = Thermal stability by thermogravimetric analyzer (5% weight loss temperature); assay type: physicochemical
Excerpt: Measurement of Thermal Stability
If a photoacid generator is thermally stable in a photoresist preparation process, a very good effect in terms of stability can be expected.

Solubility PGMEA [1]	Solubility Cyclohexane [1]	Temperature at which 5% weight loss occurred [2] [°C]	Compound
6.3 w/v; %	21.3 w/v; %	258	O=C1c2cccc3c(CCCC4CCCC4)ccc(c23)C(=O)N1OS(=O)(=O)C(F)(F)F [Compound 9]
3.1 w/v; %	7.8 w/v; %	252	O=C1c2cccc3c(CC4CCCCC4)ccc(c23)C(=O)N1OS(=O)(=O)C(F)(F)F [Compound 5]
9.2 w/v; %	26.1 w/v; %	242	O=C1c2cccc3c(CC4CC4)ccc(c23)C(=O)N1OS(=O)(=O)C(F)(F)F [Compound 1, 4-cyclopropanemethyl-naphthalimide trifluoromethane sulfonate]

Continued, compound first:

Compound	Solubility PGMEA [1]	Solubility Cyclohexane [1]	Temperature at which 5% weight loss occurred [2] [°C]
CC(C)(C)c1cc2c3c(ccc(CC4CCCCC4)c3c1)C(=O)N(OS(=O)(=O)C(F)(F)F)C2=O [Compound 19]	11.0 w/v; %	31.2 w/v; %	236
O=C1c2cccc3cccc(c23)C(=O)N1OS(=O)(=O)C(F)(F)F [Formula V, reference compound]			223
